Data reported in a melting point compilation (Tetko et al.; mined from patent text by program, amines drawn as free bases though some values may be those of a salt).

| melting point | SMILES |
| --- | --- |
| 199 to 200 °C | CC(C)(C)COc1ccc(-n2cc(C(=O)O)cn2)cc1C#N |
| 138 to 140 °C | Cn1ncc(CCC(=O)O)c1-c1ccc(Cl)cc1 |
| 105 °C | C=C(CS(=O)(=O)c1ccccc1)c1ccccc1 |
| 126 to 127 °C | CC1(C)CC(S(=O)(=O)Cc2c(C(F)(F)F)nn(C(F)F)c2Cl)=NO1 |
| 161 to 162 °C | COc1ccc(CC(=O)Nc2ccc3c(c2)[C@@H](OCCc2ccccc2)[C@H](O)C(C)(C)O3)cc1 (relative stereo) |
| 88 to 90 °C | CON=C(C(C)=NN=Cc1ccccc1N(OC)C(=O)OC)c1ccc(F)cc1 |
| 104 to 106 °C | CCN(CC)CCOc1cccc2c1c1cccc(Cl)c1n2Cc1ccc(F)cc1 |
| 227 °C | CC(C)(C)COc1ccc(NC(=O)c2cc3ccccc3s2)cc1C#N |
| 152 to 154 °C | O=C1N(Cc2ncccc2C(F)(F)F)c2ccccc2C12COc1cc3[nH]ncc3cc12 (configuration not stated) |
| 78 °C | Cc1nc(-c2ccc(Br)c(C)c2)no1 |
| 172 to 173 °C | CC(=O)NC(Cc1csc2ccccc12)C(=O)C=Cc1cc(C(F)(F)F)cc(C(F)(F)F)c1 (configuration not stated) |
| 150 to 153 °C | CCOCc1nc2c(N)nc3ccc(OCc4ccccc4)cc3c2n1CCCCNC(=O)N1CCOCC1 |
| 152 to 153 °C | Oc1ccc(C2CCC3(CC2)OCCO3)cc1 |
| 180 to 182 °C | Cn1ncc2c1-c1c(Oc3ccc4c(c3)OCO4)sc(C(=O)c3cccnc3)c1CC2 |
| 155 to 156 °C | CCCCCCc1ccc2c(c1)[nH]c1cc(COC(c3ccccc3)(c3ccccc3)c3ccccc3)ccc12 |
| 69 to 70 °C | Nc1sc2c(c1C(=O)c1ccc3ccccc3c1)CCC(Cc1ccccc1)C2 (configuration not stated) |
| 77 to 78 °C | Cc1cc2ccccc2c(-c2cccc(I)c2)n1 |
| 154 to 155 °C | CC(C)CCC1=Cc2c(F)cc(F)cc2N(C)C1C (configuration not stated) |
| 64 to 66 °C | CCCc1ccc(-c2c(-c3ccc(S(C)(=O)=O)cc3)cnn(CC(F)(F)F)c2=O)cc1 |
| 156 °C | CCCCC(=N)NC(=O)Nc1ccccc1 |
| 190 to 191 °C | CCOCc1nc2c(N)nc3cccnc3c2n1Cc1cc(-c2ccc(F)cc2)no1 |
| 156 to 160 °C | Cc1ccc(-c2nc(Cc3cc4cc(CO)ccc4o3)c(C)o2)cc1 |
| 176 to 178 °C | CCc1ccc2c(c1)C1(CCN(C(=O)Nc3cnc(-c4ccccc4)cn3)CC1)OC2=O |
| 143 to 145 °C | C=CC(C)c1cc(C)c2c(c1O)C(N(C)C(C)=O)C1CCCCC21 (configuration not stated) |
| 120 °C | CCN(O)C(=O)CCc1ccc2c(c1)C(=O)c1ccccc1CO2 |

| melting point | SMILES |
| --- | --- |
| 20 °C | FC(F)(F)c1cc2ccccc2n1Cc1ccccc1 |
| 47 to 49 °C | O=C(c1ccc(Br)cc1)c1ccc2cc[nH]c2c1 |
| 88 °C | CCOC(=O)c1ccc(NC(C)c2ccccc2)cc1 (configuration not stated) |
| 167 to 170 °C | CCc1ccc(SC2CCOC2=O)c(C(=O)O)c1 (configuration not stated) |
| 222 to 223 °C | C#CCNc1cc(C(=O)O)cc(S(N)(=O)=O)c1Oc1ccccc1 |
| 80 to 83 °C | CCOC(=O)N=P(c1ccccc1)(c1ccccc1)c1ccccc1OC |
| 214 °C | CN(c1cccc2cc(C3=NCC4(CCN(CCO)CC4)S3)[nH]c12)S(=O)(=O)c1cccs1 |
| 90 to 91 °C | COC(=O)/C(C#N)=C/c1ccccc1 |
| 206 °C | O=P(O)(O)C1CC(c2ccc(F)cc2)=NO1 (configuration not stated) |
| 125 to 127 °C | Cc1cc(O)ccc1-c1ccc(C=O)c(Cl)c1 |
| 195 to 201 °C | c1ccc(CN2CCN(Cc3nc4ccccc4[nH]3)CC2)cc1 |
| 136 to 137 °C | CC(C)c1ocnc1C(=O)O |
| 60 °C | Cc1ccc(Br)c(C)c1C#N |
| 125 to 133 °C | O=C(O)Cc1cc(Cl)cc(Cl)c1Cl |
| 182 to 183 °C | Cc1cccc(-n2nc(C)cc2-c2cc[nH]c(=O)c2)c1 |
| 258 to 260 °C | O=C(NC1CCCC1)c1ccc(-c2ccc3c(c2)CCN(CCN2CCCC2)C3=O)cc1 |
| 133 to 135 °C | COc1ccccc1-c1ccc2cnc(Nc3ccc(OCCN4CCOCC4)cc3)nn12 |
| 186 to 188 °C | Cc1ccc(C(O)=S)cn1 |
| 99 to 101 °C | CC1(C)CC(c2ccccn2)c2ccccc2O1 (configuration not stated) |
| 62 to 64 °C | O=[N+]([O-])c1cc(CN(CCN=C=S)CCN=C=S)cc(CN(CCN=C=S)CCN=C=S)c1 |
| 50 to 52 °C | CCN(CC)C(=O)c1cccs1 |
| 113 to 115 °C | O=S(=O)(Nc1cccc(OCc2csc(-c3ccccc3)n2)c1)C(F)(F)F |
| 136 °C | CCOC(=O)c1cc(-c2ccc(OC)cc2)nn(Cc2ccc(Cl)cc2Cl)c1=O |
| 98 to 98.6 °C | Nc1cccc(Oc2cc(Oc3cccc(N)c3)cc(C(F)(F)F)c2)c1 |
| 258 to 263 °C | CCNc1ccc2nnc(-c3ncc([N+](=O)[O-])n3C)n2n1 |

| melting point | SMILES |
| --- | --- |
| 195 °C | CNc1nc(Nc2ccc(Cl)c(CNC(=O)OC(C)(C)C)c2)ncc1[N+](=O)[O-] |
| 141 to 145 °C | Clc1ccc(C#Cc2ccc(-c3ccccc3)s2)cc1 |
| 118 °C | COC(=O)c1ccc(Br)cc1OC(=S)N(C)C |
| 164 to 165 °C | O=C(NCCCCCCCNC(=O)c1ccc(Oc2ccccc2)cc1)c1ccc(Oc2ccccc2)cc1 |
| 108 to 110 °C | O=C(O)C(=O)c1cc(Cl)c(OCCOc2ccc3ccccc3c2)c(Cl)c1 |
| 111 to 113 °C | O=C(O)CCC/C=C\[C@@H]1C[C@@H](NS(=O)(=O)c2ccc(Cl)cc2)CN1S(=O)(=O)c1ccc(Cl)cc1 |
| > 280 °C | O=C1c2c(c(=O)n3nc(-c4ccccc4)cc3n2CC(=NO)c2ccccc2)CN1C1CCCCC1 |
| 70 to 76 °C | COC(=O)c1ccc(OCCNC(=O)C2Cc3ccccc3N2S(=O)(=O)c2ccc(-c3cc(C(F)(F)F)ccc3Cl)cc2)cc1Cl (configuration not stated) |
| 68 to 70 °C | CC(N)=CC(=O)OCC(C)(C)CN(C)Cc1ccccc1 |
| 222 °C | Cc1nc(N)nc(N)c1-c1ccc(Cl)cc1Cl |
| 73 to 74 °C | CCCCCCCCS(=O)(=O)C(Cl)S(N)(=O)=O (configuration not stated) |
| 138 to 140 °C | O=S(CCCCCOc1ccc(C2=C(c3ccccc3)CCCc3cc(O)ccc32)cc1)CCCC(F)(F)C(F)(F)F (configuration not stated) |
| 74 to 76 °C | O=[N+]([O-])c1cnccc1-c1ccc(Cl)cc1 |
| 293 to 295 °C | O=c1[nH]c2ncc(-c3ccc(-c4ncc[nH]4)cc3)nc2n1CCC1CCOCC1 |
| 177 to 180 °C | Cc1c(-c2ccccc2)nc2ccccc2c1C(=O)N[C@@H](C)C1CCCCC1 |
| 138 to 139 °C | Cc1cc(Br)cnc1CCCCNc1ncc(Cc2ccccc2)c(=O)[nH]1 |
| < 37 °C | COc1cc2cc(C(C)C)sc2c(Cl)c1Cl |
| 101 to 103 °C | CC(C)(Oc1ccc(Cl)cc1)C(=O)Cn1cncn1 |
| 91 to 93 °C | COCCCNS(=O)(=O)NC(=O)OCc1ccccc1 |
| 191 to 192 °C | O=C(c1ccco1)C1C(=O)N(C(=O)Nc2ccc(F)cc2F)c2ccccc21 (configuration not stated) |
| 176 °C | COC(=O)C1=C(C#N)NC(C)=C(C(=O)OC(C)C)C1c1ccccc1[N+](=O)[O-] (configuration not stated) |
| 244 to 245 °C | O=C(O)C1CCc2[nH]c3ccc(Cl)c(Cl)c3c2C1 (configuration not stated) |
| 197 to 199 °C | CCNC(=O)Nc1cc(F)cc2c1OCCC21SC(=O)NC1=O (configuration not stated) |
| 90 to 95 °C | O=C(c1cc2ccccc2cn1)N(O)CCc1ccccc1 |
| 95 to 96 °C | O=C1c2ccccc2CCN1O |

| melting point | SMILES |
| --- | --- |
| 228 °C | N#CC1=C(C2CCCCCC2)Nc2n[nH]cc2C1c1cccc2nonc12 (configuration not stated) |
| 70 to 71 °C | CC(C)[C@H](NC(=O)N(C)Cc1csc(C2CC2)n1)C(=O)N[C@@H](Cc1ccccc1)C[C@H](O)[C@H](Cc1ccccc1)NC(=O)OCc1cncs1 |
| 139 to 141 °C | CNC(=O)N1CC(Oc2ccc(F)cc2Cl)C1 |
| 248 to 249 °C | CCCOc1ccc(/C=C/c2nc3c([nH]2)c(=O)n(CCC)c(=O)n3CCC)cc1 |
| 122 to 124 °C | COC(=O)c1cc(Nc2ccccc2)c(Nc2ccc(OC)cc2)cc1C(=O)OC |
| 110 to 120 °C | CCOCc1nc2c(N)nc3cc(OCCCCCCNC(=S)NC(C)C)ccc3c2n1CC(C)(C)NC(C)=O |
| 93 to 95 °C | CCCCc1nn(-c2ccccc2C(F)(F)F)c(=O)n1Cc1ccc(-c2ccccc2S(=O)(=O)NC(=O)[C@H]2CC2(C)C)cc1 |
| 213 to 215 °C | CC(=O)c1ccc(NC(=O)C=C(c2ccc(Cl)cc2)c2ccc(Cl)cc2)cc1 |
| 290 to 292 °C | Cc1cccc2c(=O)n(C3CCC(=O)NC3=O)cnc12 (configuration not stated) |
| 130 °C | CC(C)(C)NCCCOc1ccccc1C(=O)c1cccc2[nH]ccc12 |
| 193 to 195 °C | COCC1c2ccccc2CCN1c1nc(Nc2ccc(F)cc2)nc(C)c1C (configuration not stated) |
| 110 to 125 °C | O=C(O)Cc1cccc2c(-c3ccc(Cl)cc3)noc12 |
| 85 °C | Cc1cc(C)nc(NC(=O)Cc2cccn2C)c1 |
| 70 to 72 °C | CCOC(=O)[C@H](Cc1ccc(-c2c(OC)cc(CO)cc2OC)cc1)NC(=O)c1c(F)cccc1F |
| 109 to 112 °C | FC(F)(F)c1cc(Cl)c(-n2cc(I)c(C(F)(F)F)n2)c(Cl)c1 |
| 157 to 160 °C | Cc1noc(NS(=O)(=O)c2cc3ccccc3s2)c1C |
| 166 to 167 °C | CCOC(=O)c1[nH]c2sc(Cl)cc2c1Cl |
| > 300 °C | CCc1nnc2c(O)nc3cc(F)ccc3n12 |
| 160 to 164 °C | N#Cc1ccc2cc(O)ccc2c1 |
| 212 to 215 °C | CC(C)c1cccc(C(C)C)c1NC(=O)C(Cc1ccccc1)NC(=O)CCCCl (configuration not stated) |
| 84 to 86 °C | Cc1ncoc1C(=O)c1ccccc1 |
| 260 to 261 °C | CNCc1c(C)c([N+](=O)[O-])cc2[nH]c(=O)c(=O)[nH]c12 |
| 104 to 105 °C | Nc1c(Oc2ccc(F)c(C(F)(F)F)c2)ncnc1Oc1ccc(F)c(C(F)(F)F)c1 |
| 197 to 200 °C | O=C(CC1CCCCC1)NC1CC(C(=O)O)Nc2cc(Cl)cc(Cl)c21 (configuration not stated) |

| SMILES | melting point |
| --- | --- |
| Oc1cccc(C2CCCN(CCCc3ccccc3)C2)c1 (configuration not stated) | 119 to 120 °C |
| CC12CC(F)C3C4CCC(=O)C=C4C=CC3C1CCC2=O (configuration not stated) | 198 °C |
| O=C1c2c(Cl)cccc2-n2cnc(-c3nnco3)c2[C@@H]2CCN12 | 264 to 265 °C |
